Test results from patent US7445891B2, “Nucleic acid triggered catalytic drug and probe release” (priority 2001, dated 2008).

What was measured:
[1] = system: imidazole hairpin 3a; experiment: Fluorescein release from fluorescein dipivalate ODNs by imidazole hairpin; format: biochemical; details: 10 mM ODN, 5 mM hairpin 3a, 0.1 M phosphate pH 7.0, 20° C.; relative to 7a
Description: FIG. 11. […] For comparison, the release of fluorescein from the fluorescein tetramer 7aby imidazole at 0.1 M imidazole alone is also shown.
Because of the strong fluorescence and widespread use of fluorescein as a fluorescent probe, the rate of fluorescein release by imidazole catalyzed hydrolysis of diacetyl fluorescein was investigated. Diacetylated fluoresceins are non-fluorescent, but upon hydrolysis of the acyl groups become highly fluorescent. Attempts to attach the N-hydroxysuccinimide derivative of diacetylcarboxyfluorescein via amide bond formation with the 3′-amino linked oligodeoxynucleotide 5 (FIG. 4) failed due to the high pH required for the reaction which led to the premature hydrolysis of the acetate groups. Attempts to conjugate 5-chloromethyl fluorescein diacetate with a 3′-phosphorothioate labeled ODN also failed at pH 7. […] The TMs of 7a-cwere estimated from thermodynamic parameters to be -20, 19, and 41° C. under the conditions of the experiment and have equilibrium dissociation constants of 3.4 mM, 8.1 mM, and 14 nM.

[2] = system: E. coil 5S rRNA; experiment: Hydroxycoumarin release from PNA constructs on 5S rRNA trigger; format: biochemical, E. coli; details: unoptimized test
Description: FIG. 16. A series of PNA constructs was synthesized to target one of the hairpin loops of commercially available E. coil 5S rRNA (SEQ ID NO:11) as the nucleic acid trigger. This rRNA has been thoroughly characterized by enzymatic and chemical probes, and is therefore a suitable initial model for studying and optimizing various catalytic drug releasing motifs in folded […].
FIG. 19. […] In contrast, there was no difference in the rate of release of hydroxycoumarin from the 6-mer conjugate in the presence or absence of the histidine, or the catalytic component. (not shown).

[3] = system: hairpin enzyme 3a; experiment: Two component hairpin system: p-nitrophenolate / 7-hydroxycoumarin release from 8-mer prodrugs; format: biochemical; details: for Enhancement: (kcat/KM)/kIm
Experimental: Initial velocities of the reaction, obtained for each substrate concentration, were fitted to the Michaelis-Menten equation by a non-linear least squares method using KaleidaGraph software. The inhibition constant KI was determined in the presence of 25 mM 7d ([…]) in 10 mM sodium phosphate buffer pH 7.0 containing 1.0 M NaCl by the plotting 1/v vs. 1/[S] and calculating KI from the slope of the line according following equation:
(§1) [formula] where v is the velocity of the reaction, Vmax is the maximum velocity, KM is the substrate concentration at half maximal reaction rate, [I] is the inhibitor concentration, and [S] is the substrate concentration. Kinetics of p-nitrophenol and 7-hydroxycoumarin Release by Imidazole Alone

[4] = system: 15-mer catalytic component 3b and 23-mer template 4; experiment: Three component system: release from 8-mer prodrug with imidazole 15-mer and triggering 23-mer; format: biochemical
Experimental: For typical assays, pNP-8-mer 1 (SEQ ID NO:1) and Im-15-mer 2 were incubated in 10 mM sodium phosphate, pH 7.0, which contained 0.1 M or 1.0 M NaCl in an ultra-micro ([…]) UV cell (Varian). The reaction temperature was maintained at 20° C., and the production of p-nitrophenolate was monitored by UV absorbance at 400 nm (e400=6.26′10^3). Initial velocities of the reaction, obtained for each substrate concentration, were fitted to the Michaelis-Menten equation by a non-linear least squares method with KaleidaGraph software. The inhibition constant KI was determined in the presence of 20 mM d([…]) in 10 mM sodium phosphate buffer pH 7.0 containing 1.0 M NaCl by the plotting 1/v vs. 1/[S] and calculating KI from the slope of the line according following equation:
[formula] where v is the velocity of the reaction, Vmax is the maximum velocity, KM is the substrate concentration at half maximal reaction rate, [I] is the inhibitor concentration, and [S] is the substrate concentration. For comparison purposes, the reaction rate constant kIm for the imidazole catalyzed hydrolysis of N-maleoyl-D-valine p-nitrophenyl ester 8 was determined in imidazole buffer at pH 7.0, 1.0 M NaCl at 20° C. as previously described. […]
as §1

[5] = Imidazole catalyzed hydrolysis of esters (imidazole alone); format: physicochemical; details: 20° C.
Experimental: For comparison purposes, the rate constant kIm for the imidazole catalyzed hydrolysis of the various esters were determined in imidazole buffer at pH 7.0, 0.5 M NaCl at 20° C. as previously described. The imidazole buffers were prepared in 0.5 M NaCl, and adjusted to pH 7 by addition of 1 M HCl. […] The pseudo first-order rate constant for each concentration of imidazole was obtained by linear least squares fitting of In(A¥-A) or In(F¥-F) vs. time. The rate constants were then plotted against total imidazole concentration to get ko, the first order rate constant for the uncatalyzed hydrolysis reaction, and kIm, the second-order rate constant for catalysis by imidazole buffer.

[6] = Hydrolysis of esters in human serum
Experimental: In a typical run, 3 mL of coumarin ester solution (7 mM in acetonitrile) was added to 400 mL of Human serum, pH 8.3 (Innovative Research Inc.) in cuvette. The cuvette was capped, inverted several times for thorough mixing, placed in a cell block and recording was begun.

[7] = 1 M NaCl; cited from earlier work

7a: 4-mer ODN derivatized with bis-pivaloyl fluorescein (SEQ ID NO:7) (GTCA; DNA, backbone not given here; further chemistry not fully specified)
relative initial rates of fluorescein release [1]: 1

7c: 8-mer ODN derivatized with bis-pivaloyl fluorescein (SEQ ID NO:9) (TCCTGTCA; DNA, backbone not given here; further chemistry not fully specified)
relative initial rates of fluorescein release [1]: 493

8-mer PNA construct: hydroxycoumarin-bearing 8-mer PNA (SEQ ID NO:15) targeting E. coli 5S rRNA hairpin loop (CTGGGGTA; all peptide nucleic acid (PNA); hydroxycoumarin attached, position not given here)
rate of hydroxycoumarin release, all three components vs absence of the entire catalytic PNA [2]: 4 fold | rate of hydroxycoumarin release, all three components vs all three minus the histidine [2]: 2 fold

15a (SEQ ID NO:10) (X=C): mismatched b-alanine p-nitrophenyl ester 8-mer prodrug, G to C transversion (DNA TCCTNTCA; b-alanine p-nitrophenyl ester prodrug, chemistry not fully specified)
difference in initial rates of p-nitrophenolate release, matched 15a (X=G) vs single CC mismatch ([3]; 1 M NaCl): 11 fold | increase in Kd of mismatch substrate needed to account for rate difference ([3]; rates proportional to (Kd+[S])^−1): 15 fold

15a (X = G): matched b-alanine p-nitrophenyl ester 8-mer ODN prodrug (SEQ ID NO:10) (TCCTNTCA; beta-alanine p-nitrophenyl ester prodrug, chemistry not fully specified)
time in which four turnovers are complete ([3]; 20 mM prodrug, 5 mM hairpin 3a, 1 M NaCl, pH 7, 20° C.): about 4 h | kcat ([3]; 1.0 M NaCl, 10 mM phosphate buffer pH 7.0, 20° C., listed as 15a): 0.0029 s⁻¹ | Enhancement ([3]; 0.1 M NaCl): 281 | Enhancement ([3]; 1.0 M NaCl): 446 | koff needed to account for observed KM ([3]; assuming on rate 10^6 M^−1s^−1): 50 s⁻¹ | rate enhancement of ester hydrolysis relative to imidazole alone ([3]; kcat/KM compared with kIm): 446 fold

16a: D-valine p-nitrophenyl ester linked to the 3'-end of 8-mer ODN d(TCCTGTCA) (DNA, backbone not given here; further chemistry not fully specified)
p-nitrophenol formed during the course of the reaction ([4]; 5 mM catalytic ODN and 5 mM triggering ODN): about 15 mM | release more efficient with fully matched than mismatched template ([4]; 0.1 M NaCl, 20° C.): 7.5 fold | difference in rate, matched vs mismatched template ([4]; 1 M NaCl): 1.4 fold | Vmax ([4]; 1 M NaCl, pH 7, 20° C.): 0.09 mM/min | kcat ([4]; 1 M NaCl, pH 7, 20° C.): 0.0003 s⁻¹ | initial rate of p-nitrophenol release ([4]; 15-mer lacking an appended imidazole group, 1 M NaCl, pH 7, 20° C.): 0.0008 mM/min | rate acceleration over hydrolysis catalyzed by free imidazole ([4]; (kcat/KM)/kIm): 976 fold | Enhancement ([4]; (kcat/KM)/kIm, 1.0 M NaCl): 974 | initial rate of p-nitrophenol release ([4]; absence of the 23-mer or Im-15-mer, 1 M NaCl, pH 7, 20° C.): 0.002 mM/min | initial rate of p-nitrophenol release ([4]; all three components, 1 M NaCl, pH 7, 20° C.): 0.057 mM/min | initial rate of release of p-nitrophenol ([4]; fully matched 23-mer, 0.1 M NaCl, 20° C.): 0.028 mM/min | initial rate of release of p-nitrophenol ([4]; mismatched 23-mer (T at position 20 replaced with C), 0.1 M NaCl, 20° C.): 0.0037 mM/min | drop in kcat relative to b-alanine ester 15a ([3]; 1.0 M NaCl): 8.3 fold | Enhancement ([3]; 1.0 M NaCl): 429

CC(C)[C@H](C(=O)Oc1ccc([N+](=O)[O-])cc1)N1C(=O)C=CC1=O [11a, N-maleoyl-D-valine p-nitrophenyl ester]
kIm ([5]; imidazole buffer pH 7.0, 1.0 M NaCl): 0.014 M⁻¹ s⁻¹

CC(=O)Oc1ccc([N+](=O)[O-])cc1 [p-nitrophenylacetate, reference compound]
klm ([5]; imidazole catalyzed rate constant, pH 7, 0.5 M NaCl): 0.13 M⁻¹ s⁻¹

N-maleoyl-b-alanine-coumarin ester [9c]
stability to hydrolysis by human serum, compared [6]: more stable than the CBZ-glycine ester, but much less stable than the maleoyl-D-valine esters

d(GGAGCTTGCTCC): hairpin ODN of the literature (SEQ ID NO:18) (DNA, backbone not given here; hairpin)
TM reported [7]: 71 °C
